According to BindingDB's records for doi:10.1021/bi9016186 (Weill Cornell Medical College, 2010):

Biological target: T1, Dihydrolipoyl dehydrogenase (Mycobacterium tuberculosis (strain CDC 1551 / Oshkosh), UniProt P9WHH8)
T1 sequence (P9WHH8 whole entry): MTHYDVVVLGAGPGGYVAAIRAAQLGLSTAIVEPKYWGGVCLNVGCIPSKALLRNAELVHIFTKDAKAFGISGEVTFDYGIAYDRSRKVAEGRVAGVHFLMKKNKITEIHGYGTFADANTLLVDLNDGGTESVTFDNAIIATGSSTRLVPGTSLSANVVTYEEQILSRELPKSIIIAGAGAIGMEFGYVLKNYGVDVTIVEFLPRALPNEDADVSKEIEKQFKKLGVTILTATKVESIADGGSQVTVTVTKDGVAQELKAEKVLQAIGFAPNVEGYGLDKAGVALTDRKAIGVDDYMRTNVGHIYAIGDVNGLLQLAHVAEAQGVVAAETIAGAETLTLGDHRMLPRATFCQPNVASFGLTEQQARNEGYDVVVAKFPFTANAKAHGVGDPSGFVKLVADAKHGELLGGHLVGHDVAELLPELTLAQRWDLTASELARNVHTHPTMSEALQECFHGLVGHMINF
Assay: Enzymatic Assay

| SMILES | IC50 |
| --- | --- |
| COc1ccc(C(=O)N2CCC3(CC2)C(=O)N(CC(=O)NCCc2ccc(C(F)(F)F)cc2)CN3c2ccccc2)c(OC)c1 [Triazaspirobenzyl, 4] | 2000 nM |
| COc1cccc(C(=O)N2CCC3(CC2)C(=O)N(CC(=O)NCCc2ccc(C(F)(F)F)cc2)CN3c2ccccc2)c1 [Triazaspirobenzyl, 8] | > 100000 nM |
